# Measured values: patent US7563621B2, “Absorbing organic reagents into diagnostic test devices by formation of amine salt complexes” (Siemens Healhcare Diagnostics Inc, priority 2003, dated 2009)
# “And” between values parts separate entries of the source, which are not always exact repeats. Equal values may be shown once. Where a name gives a salt, the structure may show the parent alone.
# Experiments:
# [1] = molecular target: T1, human serum albumin (HSA) (Homo sapiens, UniProt P02768); test: Automated protein assay with pyrogallol red salts, 74 μM (Example 6); details: HSA 25 mg/dL; 10 minutes, 37° C; 900 nm baseline subtracted; Series #1 and #2
# Method: The dilutor was programmed for reactions of 180 μL reagent+40 μL sample. […] The samples were phosphate buffered saline (blank), human serum albumin (HSA) 25 mg/dL, and other proteins (i.e., human IgG, […], and Lambda Light Chain) at 25 mg/dL. Absorbance data were collected on a Biotek, Powerwave X Microplate Absorbance reader using BioTek “KC Jr” software to determine the relative detection of the different proteins (i.e., HSA, human IgG, […], and Lambda Light Chain) using salts of pyrogallol red. Two sets of replicates of the different proteins were run. […] The protein response was determined by subtracting the phosphate buffered saline sample reaction result from the protein reaction result.
# human IgG [2] = test: as above; details: Series #1 and #2; for average net absorbance at 600 nm after subtracting PBS sample reaction result: IgG 25 mg/dL, 10 minutes, 37° C, 900 nm baseline subtracted; for Percent Detection as Percentage of HSA Detection: IgG
# Method: (§1) The dilutor was programmed for reactions of 180 μL reagent+40 μL sample. […] The samples were phosphate buffered saline (blank), human serum albumin (HSA) 25 mg/dL, and other proteins (i.e., human IgG, […], and Lambda Light Chain) at 25 mg/dL. Absorbance data were collected on a Biotek, Powerwave X Microplate Absorbance reader using BioTek “KC Jr” software to determine the relative detection of the different proteins (i.e., HSA, human IgG, […], and Lambda Light Chain) using salts of pyrogallol red. Two sets of replicates of the different proteins were run. […] The protein response was determined by subtracting the phosphate buffered saline sample reaction result from the protein reaction result. […] The results for protein equivalence of the non-albumin proteins were expressed as a percentage of the protein colorimetric response to HSA as shown in Table 11 below.
# Lambda Light Chain [3] = test: as above; details: Series #1 and #2; for average net absorbance at 600 nm after subtracting PBS sample reaction result: Lambda Light Chain 25 mg/dL, 10 minutes, 37° C, 900 nm baseline subtracted; for Percent Detection as Percentage of HSA Detection: Lambda Light Chain
# Method: as §1
# Tamm-Horsfall [4] = molecular target: T2, Tamm-Horsfall (Homo sapiens, UniProt P07911); test: as above; details: Series #1 and #2; for average net absorbance at 600 nm after subtracting PBS sample reaction result: Tamm-Horsfall 25 mg/dL, 10 minutes, 37° C, 900 nm baseline subtracted; for Percent Detection as Percentage of HSA Detection: Tamm-Horsfall
# Method: as §1
# [5] = Butanol/water partitioning of pyrogallol red dye salts (Example 3); type: physicochemical; details: 276 nm; for Absorbance of Dye Salt in Butanol: butanol layer; for Absorbance of Dye Salt in Water: water layer
# Method: Extractions were then performed in Mixxor extractors.
# [6] = Butanol/water partitioning of dye salts (Example 2); details: rosolic acid salts; for Intensity Factor (IF): aqueous reference saturated with butanol; for Absorbance of Base in Butanol: butanol layer, λmax 562 nm; for Partition Ratio of Butanol Absorbance to Water Absorbance: corrected by intensity factor; for Absorbance of Base in Water: water layer, λmax 547 nm, four times less dilute solution measured, absorbance divided by four
# Method: The five dye solutions were then treated with 1 equivalent of each base listed in Tables 1-5 (i.e., sodium hydroxide, TRIS, and triethylamine) to form salt solutions (i.e., sodium salt solutions, TRIS salt solutions, and triethylamine salt solutions respectively).
# A 50 μL portion of each salt solution was then mixed with 950 μL water and 1000 μL butanol. […] Where necessary to deal with lingering interface phases, the samples were centrifuged.
# Tests were then performed on the respective salt solutions to determine whether the salts of the respective dyes dissolved preferentially in butanol (a more lipophilic solvent) or water (a less lipophilic solvent). […] Spectroscopy versus the butanol blank or the water blank was done as 50 μL upper (butanol) or lower (aqueous) phase plus 950 μL corresponding solvent. All absorbances were blanked on solvent in a quartz cuvette and were baseline corrected at an absorbance of 900 nm before subsequent calculations to correct for cuvette placement, dust, etc. All absorbances were then measured at the wavelengths noted below.
# Before determining the butanol to water absorbance levels, the absorbance of the solute in butanol was corrected for solvent dependent shifts in wavelength maximum and intensity based on the reference spectra of known gravimetric quantities of the dye salts in butanol and water. For such cases, the partition ratio of butanol absorbance to water absorbance was calculated using the following formula: Partition Ratio=Sample Absorbance in Butanol×Intensity Factor/Sample Absorbance in Water where the intensity factor was calculated using the following formula: Intensity Factor=Reference Sample Absorbance at λmax in water/Reference Sample Absorbance at λmax in butanol The intensity factor adjusts for those cases where the same concentration of dye in the two different solvents produced two different absorbances.
# human IgG [7] = test: Automated protein assay with pyrogallol red salts, 54 μM (Example 5); details: IgG 25 mg/dL; 10 minutes; averaged data; listed as Trioctylamine Salt
# Method: (§2) The dilutor was programmed for reactions of 180 μL reagent+40 μL sample. […] The samples were phosphate buffered saline (blank), human serum albumin (HSA) 25 mg/dL, and other proteins (i.e., human IgG, […], and Lambda Light Chain) at 25 mg/dL. Absorbance rate data were collected on a Biotek, Powerwave X Microplate Absorbance reader using BioTek “KC Jr” software to determine the relative detection of the different proteins (i.e., HSA, human IgG, […], and Lambda Light Chain) using salts of pyrogallol red. Two sets of replicates of the different proteins were run. […] The protein response was determined by subtracting the phosphate buffered saline sample reaction result from the protein reaction result.
# Lambda Light Chain [8] = test: as above; details: Lambda Light Chain 25 mg/dL; 10 minutes; averaged data; listed as Trioctylamine Salt
# Method: as §2
# Tamm-Horsfall [9] = molecular target: T2, Tamm-Horsfall; test: as above; details: 10 minutes
# Method: as §2
# [10] = molecular target: T1, human serum albumin (HSA); test: as above; details: 10 minutes
# Method: as §2
# [11] = Tamm-Horsfall 25 mg/dL, 37° C, replicates #1 and #2
# [12] = Tamm-Horsfall, 37° C, replicates #1 and #2
# [13] = HSA 25 mg/dL, 37° C, replicates #1 and #2
# [14] = HSA, 37° C, replicates #1 and #2
# T1 sequence (P02768 25-609): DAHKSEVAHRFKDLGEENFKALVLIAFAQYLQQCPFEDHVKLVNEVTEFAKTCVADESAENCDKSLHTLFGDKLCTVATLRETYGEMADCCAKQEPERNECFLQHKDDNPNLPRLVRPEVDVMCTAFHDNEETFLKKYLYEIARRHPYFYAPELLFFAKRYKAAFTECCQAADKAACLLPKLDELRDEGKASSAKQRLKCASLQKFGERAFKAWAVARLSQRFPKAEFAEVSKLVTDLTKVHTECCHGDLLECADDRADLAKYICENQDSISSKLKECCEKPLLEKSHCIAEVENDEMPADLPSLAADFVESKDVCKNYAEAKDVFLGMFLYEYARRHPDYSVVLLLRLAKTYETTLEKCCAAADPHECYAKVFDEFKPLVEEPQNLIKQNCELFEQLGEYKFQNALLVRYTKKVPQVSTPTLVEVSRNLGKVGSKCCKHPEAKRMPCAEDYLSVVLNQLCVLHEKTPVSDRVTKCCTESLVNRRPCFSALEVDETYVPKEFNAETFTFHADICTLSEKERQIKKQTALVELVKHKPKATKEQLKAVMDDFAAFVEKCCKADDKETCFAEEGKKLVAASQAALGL
compound,measurement,setting,value
"O=c1ccc2c(-c3ccccc3S(=O)(=O)O)c3ccc(O)c(O)c3oc-2c1O [Glucamine Pyrogallol Red Salt, pyrogallol red]",average net absorbance at 600 nm after subtracting PBS sample reaction result,[1],0.0618
same,average net absorbance at 600 nm after subtracting PBS sample reaction result,human IgG [2],0.0318
same,Percent Detection as Percentage of HSA Detection,human IgG [2],51%
same,average net absorbance at 600 nm after subtracting PBS sample reaction result,Lambda Light Chain [3],0.0088
same,Percent Detection as Percentage of HSA Detection,Lambda Light Chain [3],14%
same,average net absorbance at 600 nm after subtracting PBS sample reaction result,Tamm-Horsfall [4],0.0123
same,Percent Detection as Percentage of HSA Detection,Tamm-Horsfall [4],20%
same,Ratio of Butanol Absorbance to Water Absorbance,[5]; Glucamine,0.09
same,Absorbance of Dye Salt in Butanol,[5]; Glucamine,0.030
same,Absorbance of Dye Salt in Water,[5]; Glucamine,0.328
"O=C1C=CC(=C(c2ccc(O)cc2)c2ccc(O)cc2)C=C1 [Rosolic Acid, Sodium Hydroxide, rosolic acid, reference compound]",Raw Ratio of Butanol Absorbance to Water Absorbance,[6],1.7
same,Intensity Factor (IF),[6],0.69
same,Absorbance of Base in Butanol,[6],0.147
same,Partition Ratio of Butanol Absorbance to Water Absorbance,[6],1.2
same,Absorbance of Base in Water,[6],0.085
"O=C1C=CC(=C(c2ccc(O)cc2)c2ccc(O)cc2)C=C1 [Rosolic Acid, TRIS, rosolic acid]",Raw Ratio of Butanol Absorbance to Water Absorbance,[6],17
same,Intensity Factor (IF),[6],1.07
same,Absorbance of Base in Butanol,[6],0.055
same,Partition Ratio of Butanol Absorbance to Water Absorbance,[6],18
same,Absorbance of Base in Water,[6],0.003
"O=C1C=CC(=C(c2ccc(O)cc2)c2ccc(O)cc2)C=C1 [Rosolic Acid, Triethylamine, rosolic acid]",Raw Ratio of Butanol Absorbance to Water Absorbance,[6],12
same,Intensity Factor (IF),[6],0.94
same,Absorbance of Base in Butanol,[6],0.077
same,Partition Ratio of Butanol Absorbance to Water Absorbance,[6],11
same,Absorbance of Base in Water,[6],0.006
"O=c1ccc2c(-c3ccccc3S(=O)(=O)O)c3ccc(O)c(O)c3oc-2c1O [TRIS Pyrogallol Red Salt, pyrogallol red]",average net absorbance at 600 nm after subtracting PBS sample reaction result,[1],0.0750
same,average net absorbance at 600 nm after subtracting PBS sample reaction result,human IgG [2],0.0410
same,Percent Detection as Percentage of HSA Detection,human IgG [2],55%
same,average net absorbance at 600 nm after subtracting PBS sample reaction result,Lambda Light Chain [3],0.0030
same,Percent Detection as Percentage of HSA Detection,Lambda Light Chain [3],4%
same,average net absorbance at 600 nm after subtracting PBS sample reaction result,Tamm-Horsfall [4],0.0175
same,Percent Detection as Percentage of HSA Detection,Tamm-Horsfall [4],23%
same,Ratio of Butanol Absorbance to Water Absorbance,[5]; TRIS,0.13
same,Absorbance of Dye Salt in Butanol,[5]; TRIS,0.041
same,Absorbance of Dye Salt in Water,[5]; TRIS,0.326
"O=c1ccc2c(-c3ccccc3S(=O)(=O)O)c3ccc(O)c(O)c3oc-2c1O [Triethanolamine Salt, pyrogallol red]",Ratio of Butanol Absorbance to Water Absorbance,[5]; Triethanolamine,0.15
same,Absorbance of Dye Salt in Butanol,[5]; Triethanolamine,0.044
same,Absorbance of Dye Salt in Water,[5]; Triethanolamine,0.296
"O=c1ccc2c(-c3ccccc3S(=O)(=O)O)c3ccc(O)c(O)c3oc-2c1O [Triethylamine Pyrogallol Red Salt, pyrogallol red]",average net absorbance at 600 nm after subtracting PBS sample reaction result,[1],0.0559 and 0.0600
same,average net absorbance at 600 nm after subtracting PBS sample reaction result,human IgG [2],0.0285 and 0.0284
same,Percent Detection as Percentage of HSA Detection,human IgG [2],48% and 51%
same,Percent Detection as Percentage of HSA Detection,Lambda Light Chain [3],3% and 9%
same,average net absorbance at 600 nm after subtracting PBS sample reaction result,Tamm-Horsfall [4],0.0135 and 0.0109
same,Percent Detection as Percentage of HSA Detection,Tamm-Horsfall [4],22% and 19%
same,Ratio of Butanol Absorbance to Water Absorbance,[5]; Triethylamine,0.23
same,Absorbance of Dye Salt in Butanol,[5]; Triethylamine,0.063
same,Absorbance of Dye Salt in Water,[5]; Triethylamine,0.274
"O=c1ccc2c(-c3ccccc3S(=O)(=O)O)c3ccc(O)c(O)c3oc-2c1O [Trioctylamine Pyrogallol Red Salt, pyrogallol red]","Reaction Absorbance at 600 nm − Absorbance at 900 nm (net protein response, protein minus non-protein sample)",human IgG [7],−0.011
same,"Reaction Absorbance at 600 nm − Absorbance at 900 nm (net protein response, protein minus non-protein sample)",Lambda Light Chain [8],−0.042
same,"600 nm Absorbance Level, salt with Protein",Tamm-Horsfall [9]; [11],0.454 and 0.45
same,"900 nm Absorbance Background Level, salt with Protein",Tamm-Horsfall [9]; [11],0.085 and 0.084
same,"Reaction Absorbance at 600 nm − Absorbance at 900 nm (net protein response, protein minus non-protein sample)","Tamm-Horsfall [9]; Tamm-Horsfall 25 mg/dL, averaged data, listed as Trioctylamine Salt",−0.034
same,"600 nm Absorbance Level, salt in Phosphate Buffered Saline (No Protein)",Tamm-Horsfall [9]; [12],0.485 and 0.486
same,"900 nm Absorbance Background Level, salt in Phosphate Buffered Saline (No Protein)",Tamm-Horsfall [9]; [12],0.081 and 0.082
same,"600 nm Absorbance Level, salt with Protein",[10]; [13],0.454 and 0.464
same,"900 nm Absorbance Background Level, salt with Protein",[10]; [13],0.087 and 0.088
same,"Reaction Absorbance at 600 nm − Absorbance at 900 nm (net protein response, protein minus non-protein sample)","[10]; HSA 25 mg/dL, averaged data, listed as Trioctylamine Salt",−0.021
same,"600 nm Absorbance Level, salt in Phosphate Buffered Saline (No Protein)",[10]; [14],0.476 and 0.483
same,"900 nm Absorbance Background Level, salt in Phosphate Buffered Saline (No Protein)",[10]; [14],0.082 and 0.081
same,Ratio of Butanol Absorbance to Water Absorbance,[5]; Trioctylamine,3.17
same,Absorbance of Dye Salt in Butanol,[5]; Trioctylamine,0.155
same,Absorbance of Dye Salt in Water,[5]; Trioctylamine,0.049
pyrogallol red [Glucamine Pyrogallol Red Salt],Percent Detection as Percentage of HSA Detection,Lambda Light Chain [3],14%
pyrogallol red [Triethylamine Pyrogallol Red Salt],Percent Detection as Percentage of HSA Detection,Lambda Light Chain [3]; listed as triethylammonium,3%
